In ChEMBL document CHEMBL1201862, “PubChem BioAssay data set” (2004):
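Assay format: 96-well plates, 48-hour exposure. The concentration for 50% growth inhibition is given as GI50.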 Calls of active or inactive are those of the source. No stated cut-off is given here; in the data, active = GI50 up to about 1.1 µM and inactive = higher.

Tests used:
Assay in all cases: NCI anticancer screen, dose series, 48 h
A549 = test system: A549
BT-549 = test system: BT-549
CAKI-1 = test system: CAKI-1
EKVX = test system: EKVX
HCT-116 = test system: HCT-116
K562 = test system: K562
LOX IMVI = test system: LOX IMVI
M14 = test system: M14
MDA-N = test system: MDA-N
MOLT-4 = test system: MOLT-4
NCI-H23 = test system: NCI-H23
OVCAR-3 = test system: OVCAR-3
OVCAR-4 = test system: OVCAR-4
OVCAR-5 = test system: OVCAR-5
SF-268 = test system: SF-268
SF-295 = test system: SF-295
SNB-75 = test system: SNB-75
SR = test system: SR
TK-10 = test system: TK-10
UACC-62 = test system: UACC-62

| Structure (SMILES) | GI50 (A549) | GI50 (BT-549) | GI50 (CAKI-1) | GI50 (EKVX) | GI50 (HCT-116) | GI50 (K562) | GI50 (LOX IMVI) | GI50 (M14) | GI50 (MDA-N) | GI50 (MOLT-4) | GI50 (NCI-H23) | GI50 (OVCAR-3) | GI50 (OVCAR-4) | GI50 (OVCAR-5) | GI50 (SF-268) | GI50 (SF-295) | GI50 (SNB-75) | GI50 (SR) | GI50 (TK-10) | GI50 (UACC-62) |
| --- | --- | --- | --- | --- | --- | --- | --- | --- | --- | --- | --- | --- | --- | --- | --- | --- | --- | --- | --- | --- |
| Nc1ccc2c(c1)N(C(=O)CCCC(=O)N1CC(CCl)c3ccc(N)cc31)CC2CCl (stereo not given) | 472 nM (active) | 719 nM (active) | 141 nM (active) | 1510 nM (inactive) | 394 nM (active) | 873 nM (active) | 267 nM (active) | 604 nM (active) | 1060 nM (active) | 64.6 nM (active) | 218 nM (active) | 971 nM (active) | 867 nM (active) | 875 nM (active) | 115 nM (active) | 400 nM (active) | 535 nM (active) | 17 nM (active) | 1530 nM (inactive) | 354 nM (active) |
| CCCC(=O)N(C(=O)CCC)C1=C(Cl)C(=O)c2ccccc2C1=O | 6730 nM (inactive) | 3410 nM (inactive) | 2240 nM (inactive) | 5360 nM (inactive) | 2720 nM (inactive) | 2180 nM (inactive) | 3660 nM (inactive) | 6620 nM (inactive) | 7450 nM (inactive) | 3250 nM (inactive) | 2650 nM (inactive) | 3210 nM (inactive) | 5520 nM (inactive) | 7670 nM (inactive) | 4320 nM (inactive) | 15800 nM (inactive) | 3180 nM (inactive) | 3020 nM (inactive) | 4100 nM (inactive) | 2490 nM (inactive) |
